Data set [1] deals with recombinant NL4-3 virus (Renilla luciferase) in MT-2 cells. Nature of the data set: HIV cell culture assay (antiviral activity, luciferase readout). The class given is cell-based. The settings on record: Renilla, NL43. An outline of the steps:
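MT-2 cells were infected with recombinant NL4-3 virus carrying Renilla luciferase in place of part of nef. Cells were cultured 4–5 days with serially diluted compound, and luciferase was measured with a live-cell substrate. EC50 was calculated from the median effect equation.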

The nature of data set [2]: Compound cytotoxicity, XTT-based colorimetric assay. Format: cell-based. The settings on record: human; uninfected MT2 cells, day 4, XTT. An outline of the steps:
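Run under the antiviral-assay protocol but without virus. Viability was read on day 4 and CC50 values were derived from the readout.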
In general terms: Tetrazolium assays rely on reduction of a dye to a coloured formazan, in cell work by metabolically active cells.

SMILES strings stand for the structures.

EC50 and CC50 data for twelve compounds are collected here from patent US11541055B2, “Inhibitors of human immunodeficiency virus replication” (ViiV Healthcare UK (No. 5) LIMITED, priority 2018, dated 2023).

By EC50 is commonly meant the concentration at which the effect is half-maximal. As a reminder, the CC50 is the concentration that lowers cell viability or growth by half.

For `COc1cc(C)nc(-c2ccc3c(=O)n(-c4ccc(Cl)c5c(NS(C)(=O)=O)nn(C)c45)c([C@H](Cc4cc(F)cc(F)c4)NC(=O)Cn4nc(C(F)F)c5c4C(F)(F)[C@@H]4C[C@H]54)nc3c2)c1` (atropisomer, axis not shown; (P)) [Example 57, N—((S)-1-((3P)-3-(4-chloro-1-methyl-3-(methylsulfonamido)-1H-indazol-7-yl)-7-(4-methoxy-6-methylpyridin-2-yl)-4-oxo-3,4-dihydroquinazolin-2-yl)-2-(3,5-difluorophenyl)ethyl)-2-((3bS,4aR)-3-(difluoromethyl)-5,5-difluoro-3b,4,4a,5-tetrahydro-1H-cyclopropa[3,4]cyclopenta[1,2-c]pyrazol-1-yl)acetamide], the EC50 in data set [1] was found to be 0.15 nM. This compound also had a cytotoxic concentration (CC50) at 4 days in data set [2] above 500 nM.
Taken in the same sequence, the figures for `Cn1nc(NS(C)(=O)=O)c2c(Cl)ccc(-n3c([C@H](Cc4cc(F)cc(F)c4)NC(=O)Cn4nc(C(F)F)c5c4C(F)(F)[C@@H]4C[C@H]54)nc4cc(-c5cc(C(F)(F)F)cc(C(F)(F)F)n5)ccc4c3=O)c21` (atropisomer, axis not shown; (P)) [Example 58, N—((S)-1-(7-(4,6-bis(trifluoromethyl)pyridin-2-yl)-(3P)-3-(4-chloro-1-methyl-3-(methylsulfonamido)-1H-indazol-7-yl)-4-oxo-3,4-dihydroquinazolin-2-yl)-2-(3,5-difluorophenyl)ethyl)-2-((3bS,4aR)-3-(difluoromethyl)-5,5-difluoro-3b,4,4a,5-tetrahydro-1H-cyclopropa[3,4]cyclopenta[1,2-c]pyrazol-1-yl)acetamide] were 0.95 nM and above 500 nM.
Consider `Cn1nc(NS(C)(=O)=O)c2c(Cl)ccc(-n3c([C@H](Cc4cc(F)cc(F)c4)NC(=O)Cn4nc(C(F)F)c5c4C(F)(F)[C@@H]4C[C@H]54)nc4cc(-c5cccc(C(F)(F)F)n5)ccc4c3=O)c21` (atropisomer, axis not shown; (P)) [Example 59, N—((S)-1-((3P)-3-(4-chloro-1-methyl-3-(methylsulfonamido)-1H-indazol-7-yl)-4-oxo-7-(6-(trifluoromethyl)pyridin-2-yl)-3,4-dihydroquinazolin-2-yl)-2-(3,5-difluorophenyl)ethyl)-2-((3bS,4aR)-3-(difluoromethyl)-5,5-difluoro-3b,4,4a,5-tetrahydro-1H-cyclopropa[3,4]cyclopenta[1,2-c]pyrazol-1-yl)acetamide], for which the concentration for a half-maximal effect (EC50) in data set [1] worked out at 0.12 nM. Besides, the CC50 at 4 days in data set [2] is above 500 nM.
Turning to `CCc1ncncc1-c1ccc2c(=O)n(-c3ccc(Cl)c4c(NS(C)(=O)=O)nn(C)c34)c([C@H](Cc3cc(F)cc(F)c3)NC(=O)Cn3nc(C(F)F)c4c3C(F)(F)[C@@H]3C[C@H]43)nc2c1` (atropisomer, axis not shown; (P)) [Example 60, N—((S)-1-((3P)-3-(4-chloro-1-methyl-3-(methylsulfonamido)-1H-indazol-7-yl)-7-(4-ethylpyrimidin-5-yl)-4-oxo-3,4-dihydroquinazolin-2-yl)-2-(3,5-difluorophenyl)ethyl)-2-((3bS,4aR)-3-(difluoromethyl)-5,5-difluoro-3b,4,4a,5-tetrahydro-1H-cyclopropa[3,4]cyclopenta[1,2-c]pyrazol-1-yl)acetamide], the EC50 in data set [1] turned out to be 0.077 nM. Besides, in data set [2], the CC50 at 4 days is above 500 nM.
Take `Cn1nc(NS(C)(=O)=O)c2c(Cl)ccc(-n3c([C@H](Cc4cc(F)cc(F)c4)NC(=O)Cn4nc(C(F)F)c5c4C(F)(F)[C@@H]4C[C@H]54)nc4cc(-c5nccnc5C5CC5)ccc4c3=O)c21` (atropisomer, axis not shown; (P)) [Example 61, N—((S)-1-((3P)-3-(4-chloro-1-methyl-3-(methylsulfonamido)-1H-indazol-7-yl)-7-(3-cyclopropylpyrazin-2-yl)-4-oxo-3,4-dihydroquinazolin-2-yl)-2-(3,5-difluorophenyl)ethyl)-2-((3bS,4aR)-3-(difluoromethyl)-5,5-difluoro-3b,4,4a,5-tetrahydro-1H-cyclopropa[3,4]cyclopenta[1,2-c]pyrazol-1-yl)acetamide]: in data set [1], the EC50 stood at 0.16 nM. The half-maximal cytotoxic concentration (CC50) at 4 days in data set [2] is above 500 nM.
Taken in the same sequence, the figures for `CCc1cc(-c2ccc3c(=O)n(-c4ccc(Cl)c5c(NS(C)(=O)=O)nn(C)c45)c([C@H](Cc4cc(F)cc(F)c4)NC(=O)Cn4nc(C(F)F)c5c4C(F)(F)[C@@H]4C[C@H]54)nc3c2)nc(C)n1` (atropisomer, axis not shown; (P)) [Example 62, N—((S)-1-((3P)-3-(4-chloro-1-methyl-3-(methylsulfonamido)-1H-indazol-7-yl)-7-(6-ethyl-2-methylpyrimidin-4-yl)-4-oxo-3,4-dihydroquinazolin-2-yl)-2-(3,5-difluorophenyl)ethyl)-2-((3bS,4aR)-3-(difluoromethyl)-5,5-difluoro-3b,4,4a,5-tetrahydro-1H-cyclopropa[3,4]cyclopenta[1,2-c]pyrazol-1-yl)acetamide] were 0.11 nM and above 500 nM.
For `Cc1nc(-c2ccc3c(=O)n(-c4ccc(Cl)c5c(NS(C)(=O)=O)nn(C)c45)c([C@H](Cc4cc(F)cc(F)c4)NC(=O)Cn4nc(C(F)F)c5c4C(F)(F)[C@@H]4C[C@H]54)nc3c2)cc(C(F)(F)F)n1` (atropisomer, axis not shown; (P)) [Example 63, N—((S)-1-((3P)-3-(4-chloro-1-methyl-3-(methylsulfonamido)-1H-indazol-7-yl)-7-(2-methyl-6-(trifluoromethyl)pyrimidin-4-yl)-4-oxo-3,4-dihydroquinazolin-2-yl)-2-(3,5-difluorophenyl)ethyl)-2-((3bS,4aR)-3-(difluoromethyl)-5,5-difluoro-3b,4,4a,5-tetrahydro-1H-cyclopropa[3,4]cyclopenta[1,2-c]pyrazol-1-yl)acetamide], the 50% effective concentration (EC50) in data set [1] was determined as 0.33 nM. Further, the CC50 at 4 days in data set [2] is above 500 nM.
On to `Cc1ncc(F)c(-c2ccc3c(=O)n(-c4ccc(Cl)c5c(NS(C)(=O)=O)nn(C)c45)c([C@H](Cc4cc(F)cc(F)c4)NC(=O)Cn4nc(C(F)F)c5c4C(F)(F)[C@@H]4C[C@H]54)nc3c2)n1` (atropisomer, axis not shown; (P)) [Example 64, N—((S)-1-((3P)-3-(4-chloro-1-methyl-3-(methylsulfonamido)-1H-indazol-7-yl)-7-(5-fluoro-2-methylpyrimidin-4-yl)-4-oxo-3,4-dihydroquinazolin-2-yl)-2-(3,5-difluorophenyl)ethyl)-2-((3bS,4aR)-3-(difluoromethyl)-5,5-difluoro-3b,4,4a,5-tetrahydro-1H-cyclopropa[3,4]cyclopenta[1,2-c]pyrazol-1-yl)acetamide], for which the EC50 in data set [1] came out at 0.093 nM. The same compound registered a half-maximal cytotoxic concentration (CC50) at 4 days in data set [2] above 500 nM.
Consider `Cc1nc(-c2ccc3c(=O)n(-c4ccc(Cl)c5c(NS(C)(=O)=O)nn(C)c45)c([C@H](Cc4cc(F)cc(F)c4)NC(=O)Cn4nc(C(F)F)c5c4C(F)(F)[C@@H]4C[C@H]54)nc3c2)cc(C(C)C)n1` (atropisomer, axis not shown; (P)) [Example 66, N—((S)-1-((3P)-3-(4-chloro-1-methyl-3-(methylsulfonamido)-1H-indazol-7-yl)-7-(6-isopropyl-2-methylpyrimidin-4-yl)-4-oxo-3,4-dihydroquinazolin-2-yl)-2-(3,5-difluorophenyl)ethyl)-2-((3bS,4aR)-3-(difluoromethyl)-5,5-difluoro-3b,4,4a,5-tetrahydro-1H-cyclopropa[3,4]cyclopenta[1,2-c]pyrazol-1-yl)acetamide], for which the concentration for a half-maximal effect (EC50) in data set [1] was determined as 0.15 nM. For the same compound, the CC50 at 4 days in data set [2] is above 500 nM.
Regarding `CC(C)c1nccc(-c2ccc3c(=O)n(-c4ccc(Cl)c5c(NS(C)(=O)=O)nn(C)c45)c([C@H](Cc4cc(F)cc(F)c4)NC(=O)Cn4nc(C(F)F)c5c4C(F)(F)[C@@H]4C[C@H]54)nc3c2)n1` (atropisomer, axis not shown; (P)) [Example 67, N—((S)-1-((3P)-3-(4-chloro-1-methyl-3-(methylsulfonamido)-1H-indazol-7-yl)-7-(2-isopropylpyrimidin-4-yl)-4-oxo-3,4-dihydroquinazolin-2-yl)-2-(3,5-difluorophenyl)ethyl)-2-((3bS,4aR)-3-(difluoromethyl)-5,5-difluoro-3b,4,4a,5-tetrahydro-1H-cyclopropa[3,4]cyclopenta[1,2-c]pyrazol-1-yl)acetamide], the 50% effective concentration (EC50) in data set [1] is 0.15 nM. Moreover, in data set [2], the half-maximal cytotoxic concentration (CC50) at 4 days was above 500 nM.
Taken in the same sequence, the figures for `CCc1cc(-c2ccc3c(=O)n(-c4ccc(Cl)c5c(NS(C)(=O)=O)nn(C)c45)c([C@H](Cc4cc(F)cc(F)c4)NC(=O)Cn4nc(C(F)F)c5c4C(F)(F)[C@@H]4C[C@H]54)nc3c2)nc(CC)n1` (atropisomer, axis not shown; (P)) [Example 68, N—((S)-1-((3P)-3-(4-chloro-1-methyl-3-(methylsulfonamido)-1H-indazol-7-yl)-7-(2,6-diethylpyrimidin-4-yl)-4-oxo-3,4-dihydroquinazolin-2-yl)-2-(3,5-difluorophenyl)ethyl)-2-((3bS,4aR)-3-(difluoromethyl)-5,5-difluoro-3b,4,4a,5-tetrahydro-1H-cyclopropa[3,4]cyclopenta[1,2-c]pyrazol-1-yl)acetamide] were 0.18 nM and above 500 nM.
As for `CCOc1cc(-c2ccc3c(=O)n(-c4ccc(Cl)c5c(NS(C)(=O)=O)nn(C)c45)c([C@H](Cc4cc(F)cc(F)c4)NC(=O)Cn4nc(C(F)F)c5c4C(F)(F)[C@@H]4C[C@H]54)nc3c2)nc(C)n1` (atropisomer, axis not shown; (P)) [Example 69, N—((S)-1-((3P)-3-(4-chloro-1-methyl-3-(methylsulfonamido)-1H-indazol-7-yl)-7-(6-ethoxy-2-methylpyrimidin-4-yl)-4-oxo-3,4-dihydroquinazolin-2-yl)-2-(3,5-difluorophenyl)ethyl)-2-((3bS,4aR)-3-(difluoromethyl)-5,5-difluoro-3b,4,4a,5-tetrahydro-1H-cyclopropa[3,4]cyclopenta[1,2-c]pyrazol-1-yl)acetamide], the concentration giving a half-maximal response (EC50) in data set [1] amounted to 0.43 nM. This compound also registered a CC50 at 4 days in data set [2] above 500 nM.
